Drawing on patent US9040547B2, “Pyrrolopyrimidine and purine derivatives” (PFIZER INC., priority 2011, dated 2015), this text covers IC50 for 9 compounds.

Assay type in all cases: cell-based
For experiment [1], the system named is PC9-DRH. The experiment in a line: Cell proliferation assay (CellTiter-Glo), PC9-DRH. As to conditions: value marked (PC9-DRH), read-out: 3T3 del_T790M IC50, (PC9-DRH). How it is done:
(§1) Cell proliferation was measured using the CellTiter-Glo® Luminescent Cell Viability Assay. The assay involves the addition of a single reagent (CellTiter-Glo® Reagent) directly to cells cultured in serum-supplemented medium. The assay uses this one-step addition to induce cell lysis and generate a luminescent signal proportional to the amount of ATP present which is directly proportional to the number of metabolically active cells present in culture. The following cell lines were evaluated in this assay: NIH3T3/EGFR_L858R, NIH3T3/EGFR_E746-A750_deletion, NIH3T3/EGFR L858R+T790M, NIH3T3/EGFR_E746-A750_deletion+T790M, PC-9, PC9-DRH, NCI-H1975, and NCI-H3255. NIH/3T3 parental cells, NCI-H1975, and NCI-H3255 were purchased from the American Type Culture Collection (Manassas, Va.), and PC-9 cells were obtained from Japan. All cells were cultured according to recommendations. NIH/3T3 cells were grown in DMEM (Invitrogen, Carlsbad, Calif.) supplemented with 10% newborn calf serum (Invitrogen), and NIH3T3/EGFR mutant cells were grown in complete media with 5 μg/mL puromycin (Invitrogen). PC-9, NCI-H1975, and NCI-H3255 were grown in RPMI (Invitrogen, Carlsbad, Calif.) supplemented with 10% FBS (Sigma, St Louis, Mo.), and PC9-DRH cells were grown in complete media with 2 uM PF-00299804. Plasmids (pLPCX) with various EGFR constructs were made by GenScript (Piscataway, N.J.), and stable pools of NIH/3T3 cells expressing these constructs were made at Pfizer La Jolla. PC9-DRH cells were generated at Pfizer La Jolla by exposing cells to increasing concentrations of PF-00299804. Cells were plated in complete culture media (3000-5000 cells/well, 50 μl/well) on the bottom of white clear-bottom tissue culture treated microtiter plates (#3610, Corning Inc, Corning, N.Y.) and allowed to adhere overnight at 37° C., 5% CO2. The following day, compound dilution plates were prepared in 96 well clear V-bottom 0.5 mL polypropylene block plates (#3956, Corning, Inc). All cell lines were not evaluated for each compound. Each compound evaluated was prepared as a DMSO stock solution (10 mM). Compounds were tested in duplicate on each plate, with an 11-point serial dilution curve (1:3 dilution). Compound treatment (50 μl) was added from the compound dilution plate to the cell plate. The highest compound concentration was 1 or 10 μM (final), with a 0.3% final DMSO (#D-5879, Sigma, St Louis, Mo.) concentration. Plates were then incubated at 37° C., 5% CO2. After three to five days of compound treatment, CellTiter-Glo® Reagent (#G7573, Promega, Madison, Wis.) was prepared in one of two ways. If thawing a frozen aliquot of CellTiter-Glo® Reagent, the aliquot was thawed and equilibrated to room temperature prior to use while keeping it protected from light. Alternatively, new bottles of CellTiter-Glo® Buffer and CellTiter-Glo® Substrate were thawed and equilibrated to room temperature prior to use. CellTiter-Glo® Buffer (100 mL) was transferred into the amber bottle containing CellTiter-Glo® Substrate to reconstitute the lyophilized enzyme/substrate mixture, forming the CellTiter-Glo® Reagent. The reconstituted reagent was mixed by gently inverting the contents to obtain a homogeneous solution, and went into solution easily in less than one minute. Any unused reconstituted CellTiter-Glo® Reagent was immediately aliquoted and frozen at −20° C., protected from light. Cell plates were equilibrated at room temperature for approximately 30 minutes. An equivolume amount of CellTiter-Glo® Reagent (100 μL) was added to each well. Plates were mixed for two minutes on an orbital shaker to induce cell lysis, and then allowed to incubate at room temperature for 10 minutes to stabilize the luminescent signal. Luminescence was recorded using the PerkinElmer EnVision Excite Multilabel Reader used for endpoint reading for Luminescence detection (Waltham, Mass.). Data were analyzed using a four-parameter fit in Microsoft Excel. […]
A general note: ATP-based viability assays read luminescence as a measure of living cells.

The subject of experiment [2] is PC-9. The experiment in a line: Cell proliferation assay (CellTiter-Glo), PC-9. As to conditions: Homo sapiens, value marked (PC9), read-out: 3T3 del IC50, (PC9). The method, then: as §1
For experiment [3], the target named is T1, EGFR wildtype, endogenous (Homo sapiens, UniProt P00533).
T1 construct: A549 (EGFR wildtype, endogenous); host or cells: A549
T1 sequence (P00533 25-1210): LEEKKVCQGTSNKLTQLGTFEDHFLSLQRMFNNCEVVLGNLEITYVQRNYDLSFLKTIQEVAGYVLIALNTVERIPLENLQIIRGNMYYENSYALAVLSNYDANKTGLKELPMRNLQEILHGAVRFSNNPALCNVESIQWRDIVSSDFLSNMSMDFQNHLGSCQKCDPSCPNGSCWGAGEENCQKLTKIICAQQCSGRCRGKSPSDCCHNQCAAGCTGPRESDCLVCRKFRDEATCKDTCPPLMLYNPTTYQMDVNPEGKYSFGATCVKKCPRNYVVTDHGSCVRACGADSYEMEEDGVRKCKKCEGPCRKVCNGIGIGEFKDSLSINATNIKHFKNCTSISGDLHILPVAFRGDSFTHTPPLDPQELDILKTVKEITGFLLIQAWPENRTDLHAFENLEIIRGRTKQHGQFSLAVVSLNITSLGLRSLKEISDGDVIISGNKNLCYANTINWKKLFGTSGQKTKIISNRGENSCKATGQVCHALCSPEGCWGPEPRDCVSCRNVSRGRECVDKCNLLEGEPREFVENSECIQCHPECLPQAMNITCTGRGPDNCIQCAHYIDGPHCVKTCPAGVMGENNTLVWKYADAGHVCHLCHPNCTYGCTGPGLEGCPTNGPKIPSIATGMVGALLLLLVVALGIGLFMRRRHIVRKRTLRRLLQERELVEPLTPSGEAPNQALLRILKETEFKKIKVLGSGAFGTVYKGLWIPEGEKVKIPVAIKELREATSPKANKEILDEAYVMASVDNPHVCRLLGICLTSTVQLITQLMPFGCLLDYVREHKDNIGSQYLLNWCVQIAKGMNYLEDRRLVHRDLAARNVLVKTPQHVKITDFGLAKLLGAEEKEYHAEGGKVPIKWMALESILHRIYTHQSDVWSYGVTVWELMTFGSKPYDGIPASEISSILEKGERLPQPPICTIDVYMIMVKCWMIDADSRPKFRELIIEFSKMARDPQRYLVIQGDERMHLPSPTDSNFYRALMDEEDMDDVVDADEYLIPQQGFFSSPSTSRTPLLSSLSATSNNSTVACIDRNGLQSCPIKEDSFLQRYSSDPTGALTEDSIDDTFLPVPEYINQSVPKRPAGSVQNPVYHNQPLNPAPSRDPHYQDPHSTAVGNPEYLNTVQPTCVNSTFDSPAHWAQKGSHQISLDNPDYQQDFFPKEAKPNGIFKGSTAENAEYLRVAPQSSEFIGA
The experiment in a line: pEGFR Y1068 ELISA assay, A549 cells.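 Further: sandwich ELISA of phospho-EGFR Tyr1068 in cell lysates, cells exposed to compound for 2 h before EGF stimulation, 11-point threefold dilution series run in duplicate.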 As to conditions: full serum media, stimulated 10 min with EGF (40 ng/mL), read-out: pEGFRY1068 ELISAA549 IC50. Background: In an ELISA, binding on a coated surface is turned into a signal by an enzyme label.

Experiment [4] has as its system NIH3T3/EGFR L858R+T790M. The experiment in a line: Cell proliferation assay (CellTiter-Glo), NIH3T3/EGFR L858R+T790M. As to conditions: Mus musculus, NIH3T3, 120 h, 3T3 cell line, three to five days of compound treatment, read-out: 3T3 L858R_T790M IC50.
For experiment [5], the target named is T2, EGFR Del (PC9) (Homo sapiens, UniProt P00533, DEL746-750).
T2 construct: endogenous in cells; host or cells: PC-9
T2 sequence (P00533 with tags, fused parts or gaps DEL746-750): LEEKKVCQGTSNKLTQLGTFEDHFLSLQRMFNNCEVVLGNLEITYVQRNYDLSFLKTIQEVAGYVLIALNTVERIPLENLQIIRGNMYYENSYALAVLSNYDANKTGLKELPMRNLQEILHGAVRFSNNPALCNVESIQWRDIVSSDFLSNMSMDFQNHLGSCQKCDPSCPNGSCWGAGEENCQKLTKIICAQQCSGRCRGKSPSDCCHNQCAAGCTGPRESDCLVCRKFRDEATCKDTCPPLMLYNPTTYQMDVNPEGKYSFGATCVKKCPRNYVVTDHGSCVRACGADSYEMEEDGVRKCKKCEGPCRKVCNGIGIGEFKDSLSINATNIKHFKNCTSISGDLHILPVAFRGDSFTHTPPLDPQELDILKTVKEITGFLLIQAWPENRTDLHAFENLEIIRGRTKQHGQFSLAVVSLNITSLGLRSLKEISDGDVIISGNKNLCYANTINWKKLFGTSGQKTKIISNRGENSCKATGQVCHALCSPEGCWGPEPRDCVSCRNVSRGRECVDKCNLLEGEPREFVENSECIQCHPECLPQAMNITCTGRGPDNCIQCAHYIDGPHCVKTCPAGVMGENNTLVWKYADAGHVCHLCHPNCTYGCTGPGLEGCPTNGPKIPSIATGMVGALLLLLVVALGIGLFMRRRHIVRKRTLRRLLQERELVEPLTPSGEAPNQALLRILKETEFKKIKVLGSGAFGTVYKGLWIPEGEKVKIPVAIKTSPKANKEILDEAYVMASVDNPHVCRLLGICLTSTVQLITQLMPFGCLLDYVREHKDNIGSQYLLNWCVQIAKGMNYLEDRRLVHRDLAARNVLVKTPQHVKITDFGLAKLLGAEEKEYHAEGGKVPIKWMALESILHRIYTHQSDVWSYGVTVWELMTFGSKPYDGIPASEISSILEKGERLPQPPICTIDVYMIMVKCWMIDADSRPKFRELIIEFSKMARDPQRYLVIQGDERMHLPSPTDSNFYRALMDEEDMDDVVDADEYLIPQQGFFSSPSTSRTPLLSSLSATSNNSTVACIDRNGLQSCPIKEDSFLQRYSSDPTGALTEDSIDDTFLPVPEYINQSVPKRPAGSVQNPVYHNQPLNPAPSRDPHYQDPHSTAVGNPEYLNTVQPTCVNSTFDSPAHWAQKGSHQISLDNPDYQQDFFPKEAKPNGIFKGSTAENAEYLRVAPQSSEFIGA
The experiment in a line: EGFR ELISA, PC9 Del cells.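 Further: cellular EGFR autophosphorylation at Tyr1068 quantified by sandwich ELISA of cell lysates after 2 h compound exposure at 37 °C, 11-point threefold dilution series.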 Conditions: read-out: EGFR_ELISA9E PC9 Del IC50.

The target in experiment [6] is T3, EGFR L858R+T790M, endogenous (Homo sapiens, UniProt P00533, L858R/T790M).
T3 construct: NCI-H1975 (EGFR L858R+T790M, endogenous); host or cells: NCI-H1975
T3 sequence (P00533 25-1210 T790M/L858R): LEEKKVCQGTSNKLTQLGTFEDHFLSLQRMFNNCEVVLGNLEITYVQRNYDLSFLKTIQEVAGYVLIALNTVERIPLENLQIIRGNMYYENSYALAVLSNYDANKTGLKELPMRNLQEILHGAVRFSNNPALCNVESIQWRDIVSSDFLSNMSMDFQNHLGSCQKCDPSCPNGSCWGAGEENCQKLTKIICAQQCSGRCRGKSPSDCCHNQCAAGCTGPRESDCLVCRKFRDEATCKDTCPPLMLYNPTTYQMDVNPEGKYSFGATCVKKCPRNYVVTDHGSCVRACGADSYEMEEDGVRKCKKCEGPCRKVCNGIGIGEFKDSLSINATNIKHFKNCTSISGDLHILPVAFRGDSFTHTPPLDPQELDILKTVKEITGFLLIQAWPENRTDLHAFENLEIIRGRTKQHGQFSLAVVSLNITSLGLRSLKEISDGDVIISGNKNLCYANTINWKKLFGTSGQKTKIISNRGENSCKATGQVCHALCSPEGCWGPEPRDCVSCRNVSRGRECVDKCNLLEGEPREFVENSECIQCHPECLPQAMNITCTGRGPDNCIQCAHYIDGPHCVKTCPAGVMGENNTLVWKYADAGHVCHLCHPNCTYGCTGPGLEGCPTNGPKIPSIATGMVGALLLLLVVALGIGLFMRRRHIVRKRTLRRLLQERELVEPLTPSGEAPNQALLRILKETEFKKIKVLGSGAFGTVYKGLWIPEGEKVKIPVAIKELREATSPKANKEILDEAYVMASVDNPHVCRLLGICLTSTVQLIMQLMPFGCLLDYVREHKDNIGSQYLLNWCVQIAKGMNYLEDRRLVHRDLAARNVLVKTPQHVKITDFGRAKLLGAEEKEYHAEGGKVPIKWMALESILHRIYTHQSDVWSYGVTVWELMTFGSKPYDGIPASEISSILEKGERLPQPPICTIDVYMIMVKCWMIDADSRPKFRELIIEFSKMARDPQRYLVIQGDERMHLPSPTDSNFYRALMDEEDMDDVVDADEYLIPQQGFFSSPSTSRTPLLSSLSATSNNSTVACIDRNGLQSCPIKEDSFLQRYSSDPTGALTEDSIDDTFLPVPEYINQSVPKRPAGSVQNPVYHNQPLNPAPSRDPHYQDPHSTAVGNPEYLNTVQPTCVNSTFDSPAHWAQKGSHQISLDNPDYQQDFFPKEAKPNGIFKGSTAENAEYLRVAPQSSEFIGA
The experiment in a line: pEGFR Y1068 ELISA assay, NCI-H1975 cells.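 Further: sandwich ELISA of endogenous phospho-EGFR (Tyr1068) in lysates of treated cells, 11-point 1:3 serial dilution tested in duplicate per plate.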 Conditions: value marked (H1975): NCI-H1975 cells, 2 hrs compound treatment; read-out: pEGFRY1068 ELISA3T3T790M—L858R IC50 (nM), (H1975).

Experiment [7] relates to NCI-H3255. The experiment in a line: Cell proliferation assay (CellTiter-Glo), NCI-H3255. As to conditions: Homo sapiens, value marked (H3255), read-out: 3T3 L858R IC50, (H3255). How it is done:
as §1

The target of experiment [8] is T4, EGFR L858R, endogenous (Homo sapiens, UniProt P00533, L858R).
T4 construct: NCI-H3255 (EGFR L858R, endogenous); endogenous in cells; host or cells: NCI-H3255
The experiment in a line: pEGFR Y1068 ELISA assay, NCI-H3255 cells. As to conditions: value marked (H3255): NCI-H3255 cells, 2 hrs compound treatment; read-out: pEGFRY1068 ELISA3T3 L858R IC50 (nM), (H3255).

The subject of experiment [9] is PC9RK. Nature of the experiment: Cell proliferation assay (CellTiter-Glo), PC9RK. As to conditions: value marked (PC9RK), read-out: 3T3 del_T790M IC50, (PC9RK). The method, then: as §1, with “After three to five days of compound treatment, CellTiter-Glo® Reagent (#G7573, Promega, Madison, Wis.) was prepared in one of two ways. If thawing a frozen aliquot of CellTiter-Glo® Reagent, the aliquot was thawed and equilibrated to room temperature prior to use while keeping it protected from light. Alternatively, new bottles of CellTiter-Glo® Buffer and CellTiter-Glo® Substrate were thawed and equilibrated to room temperature prior to use. CellTiter-Glo® Buffer (100 mL) was transferred into the amber bottle containing CellTiter-Glo® Substrate to reconstitute the lyophilized enzyme/substrate mixture, forming the CellTiter-Glo® Reagent. The reconstituted reagent was mixed by gently inverting the contents to obtain a homogeneous solution, and went into solution easily in less than one minute. Any unused reconstituted CellTiter-Glo® Reagent was immediately aliquoted and frozen at −20° C., protected from light. Cell plates were equilibrated at room temperature for approximately 30 minutes. An equivolume amount of CellTiter-Glo® Reagent (100 μL) was added to each well. Plates were mixed for two minutes on an orbital shaker to induce cell lysis, and then allowed to incubate at room temperature for 10 minutes to stabilize the luminescent signal.” left out

Experiment [10] has as its system NCI-H1975. The experiment in a line: Cell proliferation assay (CellTiter-Glo), NCI-H1975. Conditions: Homo sapiens, value marked (H1975), read-out: 3T3 L858R_T790M IC50, (H1975). The method, then:
as §1

For experiment [11], the target named is EGFR L858R (Homo sapiens, UniProt P00533, L858R). Nature of the experiment: pEGFR Y1068 ELISA assay, NIH3T3/EGFR_L858R cells.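 Further: sandwich ELISA of phospho-EGFR Tyr1068 in lysates of stably transfected NIH/3T3 pools after 2 h compound exposure at 37 °C, 11-point threefold dilution series run in duplicate.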 Conditions: 3T3 cell line, 2 hrs compound treatment; read-out: pEGFRY1068 ELISA3T3 L858R IC50.
The target in experiment [12] is EGFR L858R+T790M (Homo sapiens, UniProt P00533, L858R/T790M). The experiment in a line: pEGFR Y1068 ELISA assay, NIH3T3/EGFR_L858R+T790M cells.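 Further: sandwich ELISA of EGFR phosphorylated at Tyr1068 in lysates of stably transfected NIH/3T3 cells, 11-point threefold dilution series run in duplicate.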 As to conditions: 3T3 cell line, 2 hrs compound treatment; read-out: pEGFRY1068 ELISA3T3T790M—L858R IC50.
Experiment [13] addresses EGFR E746-A750 deletion (Homo sapiens, UniProt P00533, DEL746-750). The experiment in a line: pEGFR Y1068 ELISA assay, NIH3T3/EGFR_E746-A750 deletion cells.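 Further: sandwich ELISA on cell lysates detecting phospho-EGFR at Tyr1068, compounds run as 11-point threefold dilution series in duplicate, IC50 from inhibition of this phosphorylation signal.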 Conditions: 3T3 Del cells, 2 hrs compound treatment; read-out: ELISA7E 3T3 Del IC50.

EGFR E746-A750 deletion, sequence (P00533 with tags, fused parts or gaps DEL746-750): as the sequence (P00533 with tags, fused parts or gaps DEL746-750) above

For `C=CC(=O)N1C[C@@H](F)[C@H](Nc2nc(Nc3cnn(C)c3)nc3[nH]cc(Cl)c23)C1` (single isomer, unassigned) [Example 83], the IC50 – broadly, the point on the concentration scale where inhibition reaches its midpoint – was 10 to 100 nM in experiment [1]; 100 to 1000 nM in experiment [2]; 450 nM in experiment [3]; 10 to 100 nM in [4]; 87 nM in experiment [5]; 5 nM in experiment [6]. Also, the IC50 in experiment [7] is 10 to 100 nM; in experiment [8], 31 nM.

In the case of `C=CC(=O)N1C[C@H](Nc2nc(Nc3cnn(C)c3)nc3[nH]cc(Cl)c23)[C@@H](C(F)(F)F)C1` [Example 87], the IC50 in experiment [1] is 100 to 1000 nM; in [2], above 1000 nM; in experiment [3], 948 nM; in experiment [4], 100 to 1000 nM; in experiment [5], 48 nM; in [6] it was 14 nM. In addition, the IC50 in [7] is 10 to 100 nM; in experiment [8] it was 43 nM.

Regarding `C=CC(=O)N1CC[C@@H](Nc2nc(Nc3cnn(C)c3)nc3[nH]cc(Cl)c23)C1` [Example 96], the 50% inhibitory concentration (IC50) in [1] was 10 to 100 nM; in [2] it was 100 to 1000 nM; in experiment [3] it was 2180 nM; in experiment [4] it was 10 to 100 nM; in experiment [5], 342 nM; in [6] it was 15 nM. In addition, the IC50 is 100 to 1000 nM in [7] and 101 nM in experiment [8].

For the compound `C=CC(=O)N1C[C@H](COc2nc(Nc3cnn(CCO)c3)nc3[nH]cc(Cl)c23)[C@@H](OC)C1` [Example 101], the IC50 was 100 to 1000 nM in [9]; above 1000 nM in experiment [10]; above 1000 nM in [2]; 1010 nM in experiment [11]; above 10000 nM in experiment [3]; 6540 nM in [5]. Also, the IC50 in experiment [6] was 48 nM; in experiment [7], 100 to 1000 nM.

`C=CC(=O)N1C[C@H](COc2nc(Nc3cnn([C@H]4CCOC4)c3)nc3[nH]cc(Cl)c23)[C@@H](OC)C1` [Example 102]: the IC50 in experiment [9] was 100 to 1000 nM; in [10], 100 to 1000 nM; in [2] it was 100 to 1000 nM; in [11], 297 nM; in [3], 4960 nM; in [7], 100 to 1000 nM. In addition, the figures for the half-maximal inhibitory concentration (IC50) in experiment [12] and in [13] were 21 nM and 709 nM, respectively.

Turning to `C=CC(=O)N[C@H]1C[C@@H](Oc2nc(Nc3cnn(C)c3)nc3[nH]cc(-c4cccnc4)c23)C1` [Example 109], the IC50 in experiment [9] is 100 to 1000 nM; in experiment [10], 100 to 1000 nM; in experiment [2] it was 10 to 100 nM; in experiment [11], 271 nM; in [3], 5540 nM; in experiment [5], 29 nM. The values for the IC50 in experiment [7], in experiment [12] and in [13] were 100 to 1000 nM, 153 nM and 32 nM, respectively.

Turning to `C=CC(=O)N1C[C@H](COc2nc(Nc3cnn(C)c3)nc3[nH]cc(Cl)c23)[C@@H](C(F)(F)F)C1` [Example 110], the IC50 in experiment [10] is above 1000 nM; in experiment [2], 100 to 1000 nM; in [7], 100 to 1000 nM.

Turning to `C=CC(=O)N1C[C@H](COc2nc(Nc3ccn(C)n3)nc3[nH]cc(Cl)c23)[C@@H](OC)C1` [Example 111], the half-maximal inhibitory concentration (IC50) is above 1000 nM in experiment [10]; 100 to 1000 nM in [2]; 352 nM in experiment [11]; above 10000 nM in experiment [3]; 100 to 1000 nM in experiment [7]; 14 nM in experiment [12]. Also, the IC50 in [13] is 886 nM.

`C=CC(=O)N[C@]1(C)C[C@H](Oc2nc(Nc3cnn(C)c3)nc3[nH]cc(Cl)c23)C1` [Example 114]: the IC50 was 100 to 1000 nM in experiment [9]; 100 to 1000 nM in [10]; 100 to 1000 nM in experiment [2]; above 10000 nM in [3]; 1200 nM in experiment [5]; 39 nM in [6]. Moreover, the values for the IC50 in [7] and in experiment [8] were 10 to 100 nM and 667 nM, respectively.
